Measured values from ChEMBL document CHEMBL1156232, “Non-classical antifolates. Part 2: synthesis, biological evaluation, and molecular modeling study of some new 2,6-substituted-quinazolin-4-ones” (Bioorg Med Chem, 2010).
Active and inactive are the calls of the source. The rule behind the calls is not given here.

Columns and labels:
Candida albicans [1] = experiment: Antifungal activity against Candida albicans at 200 ug/disk after 48 hrs by disk diffusion method; format: functional, organism-based
Escherichia coli = experiment: Antibacterial activity against Escherichia coli at 200 ug/disk after 24 hrs by disk diffusion method; format: functional; conditions: for zone of inhibition at 200 µg/disc: read-out: DIZ
Pseudomonas aeruginosa = experiment: Antibacterial activity against Pseudomonas aeruginosa at 200 ug/disk after 24 hrs by disk diffusion method; format: functional
Candida albicans [2] = experiment: Antifungal activity against Candida albicans after 48 hrs by microdilution susceptibility method; format: functional, organism-based
Bacillus subtilis = experiment: Antibacterial activity against Bacillus subtilis at 200 ug/disk after 24 hrs by disk diffusion method; format: functional
Dihydrofolate reductase [3] = target: T1, Dihydrofolate reductase (Bos taurus, UniProt P00376)
T1 sequence (P00376 whole entry): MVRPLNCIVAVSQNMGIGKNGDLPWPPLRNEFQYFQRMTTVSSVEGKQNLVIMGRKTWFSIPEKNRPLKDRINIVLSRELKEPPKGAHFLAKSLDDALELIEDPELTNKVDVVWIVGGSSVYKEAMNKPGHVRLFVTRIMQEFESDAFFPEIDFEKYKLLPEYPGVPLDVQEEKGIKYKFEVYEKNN
Description: Inhibition of bovine DHFR after 2 mins

Staphylococcus aureus = experiment: Antibacterial activity against Staphylococcus aureus at 200 ug/disk after 24 hrs by disk diffusion method; format: functional
Micrococcus luteus = experiment: Antibacterial activity against Micrococcus luteus at 200 ug/disk after 24 hrs by disk diffusion method; format: functional
Dihydrofolate reductase [4] = target: T2, Dihydrofolate reductase (Homo sapiens, UniProt P00374)
T2 sequence (P00374 whole entry): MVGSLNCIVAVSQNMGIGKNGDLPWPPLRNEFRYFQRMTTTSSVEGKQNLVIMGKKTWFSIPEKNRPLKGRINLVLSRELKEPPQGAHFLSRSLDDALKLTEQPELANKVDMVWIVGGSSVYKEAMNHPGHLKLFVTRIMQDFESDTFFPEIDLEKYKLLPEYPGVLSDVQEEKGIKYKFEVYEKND
Description: Inhibition of human DHFR after 2 mins

Row | Structure (SMILES) | Activity (Candida albicans [1]) | diameter of the inhibition zone (DIZ) (Escherichia coli) | diameter of the inhibition zone (DIZ) (Pseudomonas aeruginosa) | Activity (Candida albicans [2]) | diameter of the inhibition zone (DIZ) (Bacillus subtilis) | IC50 (Dihydrofolate reductase [3]) [µM] | diameter of the inhibition zone (DIZ) (Staphylococcus aureus) | diameter of the inhibition zone (DIZ) (Micrococcus luteus) | IC50 (Dihydrofolate reductase [4]) [µM] | zone of inhibition at 200 µg/disc (Escherichia coli) [mm] | zone of inhibition at 200 µg/disc (Pseudomonas aeruginosa; read-out: DIZ) [mm] | zone of inhibition at 200 µg/disc (Bacillus subtilis; read-out: DIZ) [mm]
1 | CSc1nc2ccc(N)cc2c(=O)n1Cc1ccccc1 | inactive | inactive | inactive | inactive | inactive | 10 | inactive | inactive | – | – | – | –
2 | C=CCN(C)c1ccc2nc(SC)n(Cc3ccccc3)c(=O)c2c1 | inactive | inactive | inactive | inactive | inactive | 1 | inactive | inactive | 2 | – | – | –
3 | CCOC(=O)CCSc1nc2ccc([N+](=O)[O-])cc2c(=O)n1Cc1ccccc1 | inactive | – | – | inactive | – | 25 | inactive | inactive | – | 16 | 16 | 14
4 | O=c1c2cc([N+](=O)[O-])ccc2nc(SCc2ccccc2)n1Cc1ccccc1 | inactive | inactive | inactive | inactive | inactive | 30 | inactive | inactive | – | – | – | –
5 | CSc1nc2ccc([N+](=O)[O-])cc2c(=O)n1Cc1ccccc1 | inactive | inactive | inactive | inactive | inactive | 30 | inactive | inactive | – | – | – | –
6 | Cc1ccc2nc(SCc3ccccc3)n(Cc3ccccc3)c(=O)c2c1 | inactive | inactive | inactive | inactive | inactive | 10 | inactive | inactive | – | – | – | –
7 | CSc1nc2ccc(NC/C=C/c3ccccc3)cc2c(=O)n1Cc1ccccc1 | inactive | – | inactive | inactive | inactive | 0.5 | inactive | inactive | 2 | 15 | – | –
8 | C=CCSc1nc2ccc(C)cc2c(=O)n1Cc1ccccc1 | inactive | inactive | inactive | inactive | inactive | 2 | inactive | inactive | 4 | – | – | –
9 | Cc1ccc2nc(SC/C=C/c3ccccc3)n(Cc3ccccc3)c(=O)c2c1 | inactive | inactive | inactive | inactive | inactive | 0.5 | inactive | inactive | 1 | – | – | –
10 | CCSc1nc2ccc(C)cc2c(=O)n1Cc1ccccc1 | inactive | inactive | inactive | inactive | inactive | 35 | inactive | inactive | – | – | – | –
11 | C=CCSc1nc2ccc(NC(=O)C=C)cc2c(=O)n1Cc1ccccc1 | inactive | inactive | inactive | inactive | inactive | 10 | inactive | inactive | – | – | – | –
12 | C=CC(=O)Nc1ccc2nc(SC)n(Cc3ccccc3)c(=O)c2c1 | inactive | inactive | inactive | inactive | inactive | 50 | inactive | inactive | – | – | – | –
13 | CSc1nc2ccc(C)cc2c(=O)n1Cc1ccccc1 | inactive | inactive | inactive | inactive | inactive | 20 | inactive | inactive | – | – | – | –
14 | C=CCn1c(SSc2nc(=O)c3cc([N+](=O)[O-])ccc3n2CC=C)nc(=O)c2cc([N+](=O)[O-])ccc21 | inactive | inactive | inactive | inactive | inactive | 10 | inactive | inactive | – | – | – | –
